pIC50: −log10 of the molar value.
Test system: VEGF promoter (luciferase reporter) in Hep3B cells
Test: Cell-based assay of VEGF gene transcription (VEGF-Luciferase assay)
Conditions: Hep3B cells stably expressing VEGF-luciferase construct; 100 μM desferoxamine, 18 hours; read-out: IC50 (concentration of compound required to cause a 50% reduction of the luciferase signal)
Method: Cell-Based Assay of VEGF Gene Transcription (VEGF-Luciferase Assay).
The activity of compounds is determined by a cell-based reporter assay which uses the hepatoma 3B (Hep3B) cell line.
This assay involves the use of a luciferase reporter gene under the direct control of the VEGF promoter. Induction of the hypoxic response using desferoxamine leads to the transcription of luciferase through activation of the VEGF promoter, which in turn leads to an increase in luciferse activity, which can be measured using most of commercially available luciferase assay kits. Molecules which inhibit the activation of the VEGF promoter can thus be detected.
This assay can be run using a Hep3B cell line which stably expresses the VEGF-luciferase construct.
Hep3B cells (ATCC Ref. No. HB-8064) are plated in 6-well plates at 2.5×10^5 cells/well in 2 mL DMEM/10% FCS and are transfected the following day using Fugene 6 (Roche Biochemicals®). Transfection mixtures per well contain 6 μL Fugene 6 transfection reagent, 1 μg of pxp2-VEGF-luciferase reporter (rat VEGF promoter, NCBI GenBank accession no. U22373, Levy et al., 1995), plus pcDNA3.1(+) Neomycin resistance vector (INVITROGEN). […]
Luciferase activity is measured using the Bright Glo Luciferase Assay System (Promega®, see also technical Manual, Part #TM052, Instructions for Use of Products E2620 and E2650, revised 10/00). […]

pIC50: > 5.00
Structure (SMILES): CCN(CC)c1ccc2cc(-c3nc(-c4ccccc4)cs3)c(=O)oc2c1 [Example 8]
